Measured values taken from ChEMBL document CHEMBL1806455, “Synthesis, activity and pharmacokinetics of novel antibacterial 15-membered ring macrolones” (Eur J Med Chem, 2011).
Converted amounts (≈) assume the structure as drawn.

Key:
Type in all cases: functional
[1] = system: Staphylococcus aureus; assay: Antibacterial activity against efflux-mediated macrolide-resistant Staphylococcus aureus PK1 by broth microdilution method
[2] = system: Streptococcus pneumoniae; assay: Antibacterial activity against erythromycin-sensitive Streptococcus pneumoniae SP030 by broth microdilution method
[3] = system: Staphylococcus aureus; assay: Antibacterial activity against constitutive macrolide, lincosamide, streptogramin-resistant Staphylococcus aureus PK2 by broth microdilution method
[4] = system: Haemophilus influenzae; assay: Antibacterial activity against Haemophilus influenzae ATCC 49247 by broth microdilution method
[5] = system: Staphylococcus aureus; assay: Antibacterial activity against erythromycin-sensitive Staphylococcus aureus ATCC 13709 by broth microdilution method
[6] = system: Streptococcus pyogenes; assay: Antibacterial activity against efflux-mediated macrolide-resistance Streptococcus pyogenes 2 Finland by broth microdilution method
[7] = system: Streptococcus pyogenes; assay: Antibacterial activity against macrolide, lincosamide, streptogramin-resistant Streptococcus pyogenes 166 GR-Micro by broth microdilution method
[8] = system: Streptococcus pyogenes; assay: Antibacterial activity against erythromycin-sensitive Streptococcus pyogenes 3565 by broth microdilution method
[9] = system: Streptococcus pyogenes; assay: Antibacterial activity against inducible macrolide-lincosamide-streptogramin B resistant Streptococcus pyogenes Finland 11 by broth microdilution method
[10] = system: Streptococcus pneumoniae; assay: Antibacterial activity against inducible macrolide-resistant, constitutive lincosamide, streptogramin-resistant Streptococcus pneumoniae 134 GR M by broth microdilution method
[11] = system: Staphylococcus aureus; assay: Antibacterial activity against inducible macrolide-lincosamide-streptogramin B resistant Staphylococcus aureus 90256 by broth microdilution method
[12] = system: Streptococcus pneumoniae; assay: Antibacterial activity against constitutive macrolide, lincosamide, streptogramin-resistant Streptococcus pneumoniae 58 spain by broth microdilution method
[13] = system: Streptococcus pneumoniae; assay: Antibacterial activity against efflux-mediated macrolide-resistant Streptococcus pneumoniae Ci137 by broth microdilution method
[14] = system: Moraxella catarrhalis; assay: Antibacterial activity against Moraxella catarrhalis ATCC 23246 by broth microdilution method

SMILES: CC[C@H]1OC(=O)[C@H](C)[C@@H](O[C@H]2C[C@@](C)(OC)[C@@H](OC(=O)CCOCCNc3cc4c(=O)c(C(=O)OC(C)C)cn(C5CC5)c4cc3Cl)[C@H](C)O2)[C@H](C)[C@@H](O[C@@H]2O[C@H](C)C[C@H](N(C)C)[C@H]2O)[C@](C)(O)C[C@@H](C)CN(C)[C@H](C)[C@@H](O)[C@]1(C)O
- MIC [1]: 2 µg/mL (≈ 1.71 µM)
- MIC [2]: ≤ 0.125 µg/mL
- MIC [3]: > 64 µg/mL
- MIC [4]: 2 µg/mL (≈ 1.71 µM)
- MIC [5]: 0.5 µg/mL (≈ 0.428 µM)
- MIC [6]: ≤ 0.125 µg/mL
- MIC [7]: ≤ 0.125 µg/mL
- MIC [8]: ≤ 0.125 µg/mL
- MIC [9]: ≤ 0.125 µg/mL
- MIC [10]: ≤ 0.125 µg/mL
- MIC [11]: 2 µg/mL (≈ 1.71 µM)
- MIC [12]: ≤ 0.125 µg/mL
- MIC [13]: ≤ 0.125 µg/mL

SMILES: CC[C@H]1OC(=O)[C@H](C)[C@@H](O[C@H]2C[C@@](C)(OC)[C@@H](OC(=O)CCOCCNc3cc4c(=O)c(C(=O)OCCN5CCCC5)cn(C5CC5)c4cc3Cl)[C@H](C)O2)[C@H](C)[C@@H](O[C@@H]2O[C@H](C)C[C@H](N(C)C)[C@H]2O)[C@](C)(O)C[C@@H](C)CN(C)[C@H](C)[C@@H](O)[C@]1(C)O
- MIC [1]: ≤ 0.125 µg/mL
- MIC [2]: ≤ 0.125 µg/mL
- MIC [3]: > 64 µg/mL
- MIC [4]: 4 µg/mL (≈ 3.27 µM)
- MIC [5]: 0.25 µg/mL (≈ 0.204 µM)
- MIC [6]: ≤ 0.125 µg/mL
- MIC [14]: ≤ 0.125 µg/mL
- MIC [7]: ≤ 0.125 µg/mL
- MIC [8]: ≤ 0.125 µg/mL
- MIC [9]: ≤ 0.125 µg/mL
- MIC [10]: ≤ 0.125 µg/mL
- MIC [11]: 1 µg/mL (≈ 0.818 µM)
- MIC [12]: ≤ 0.125 µg/mL
- MIC [13]: ≤ 0.125 µg/mL

SMILES: CCCOC(=O)c1cn(C2CC2)c2ccc(NCCOCCC(=O)O[C@H]3[C@H](C)O[C@@H](O[C@H]4[C@H](C)[C@@H](O[C@@H]5O[C@H](C)C[C@H](N(C)C)[C@H]5O)[C@](C)(O)C[C@@H](C)CN(C)[C@H](C)[C@@H](O)[C@](C)(O)[C@@H](CC)OC(=O)[C@@H]4C)C[C@@]3(C)OC)cc2c1=O
- MIC [1]: 2 µg/mL (≈ 1.76 µM)
- MIC [2]: ≤ 0.125 µg/mL
- MIC [3]: > 64 µg/mL
- MIC [4]: 2 µg/mL (≈ 1.76 µM)
- MIC [5]: 0.5 µg/mL (≈ 0.441 µM)
- MIC [6]: ≤ 0.125 µg/mL
- MIC [7]: ≤ 0.125 µg/mL
- MIC [8]: ≤ 0.125 µg/mL
- MIC [9]: ≤ 0.125 µg/mL
- MIC [10]: ≤ 0.125 µg/mL
- MIC [11]: 4 µg/mL (≈ 3.53 µM)
- MIC [12]: ≤ 0.125 µg/mL
- MIC [13]: ≤ 0.125 µg/mL

SMILES: CC[C@H]1OC(=O)[C@H](C)[C@@H](O[C@H]2C[C@@](C)(OC)[C@@H](OC(=O)CCOCCNc3ccc4c(c3)c(=O)c(C(=O)OC(C)C)cn4C3CC3)[C@H](C)O2)[C@H](C)[C@@H](O[C@@H]2O[C@H](C)C[C@H](N(C)C)[C@H]2O)[C@](C)(O)C[C@@H](C)CN(C)[C@H](C)[C@@H](O)[C@]1(C)O
- MIC [1]: 8 µg/mL (≈ 7.06 µM)
- MIC [2]: ≤ 0.125 µg/mL
- MIC [3]: > 64 µg/mL
- MIC [4]: 4 µg/mL (≈ 3.53 µM)
- MIC [5]: 0.5 µg/mL (≈ 0.441 µM)
- MIC [6]: ≤ 0.125 µg/mL
- MIC [14]: 4 µg/mL (≈ 3.53 µM)
- MIC [7]: ≤ 0.125 µg/mL
- MIC [8]: ≤ 0.125 µg/mL
- MIC [9]: ≤ 0.125 µg/mL
- MIC [10]: ≤ 0.125 µg/mL
- MIC [11]: 16 µg/mL (≈ 14.1 µM)
- MIC [12]: ≤ 0.125 µg/mL
- MIC [13]: ≤ 0.125 µg/mL

SMILES: CCC(=O)CNC(=O)COC(=O)c1cn(C2CC2)c2ccc(NCCOCCC(=O)O[C@H]3[C@H](C)O[C@@H](O[C@H]4[C@H](C)[C@@H](O[C@@H]5O[C@H](C)C[C@H](N(C)C)[C@H]5O)[C@](C)(O)C[C@@H](C)CN(C)[C@H](C)[C@@H](O)[C@](C)(O)[C@@H](CC)OC(=O)[C@@H]4C)C[C@@]3(C)OC)cc2c1=O
- MIC [1]: 8 µg/mL (≈ 6.57 µM)
- MIC [2]: ≤ 0.125 µg/mL
- MIC [3]: > 64 µg/mL
- MIC [4]: 4 µg/mL (≈ 3.28 µM)
- MIC [5]: 1 µg/mL (≈ 0.821 µM)
- MIC [6]: ≤ 0.125 µg/mL
- MIC [7]: ≤ 0.125 µg/mL
- MIC [8]: ≤ 0.125 µg/mL
- MIC [9]: ≤ 0.125 µg/mL
- MIC [10]: ≤ 0.125 µg/mL
- MIC [11]: 16 µg/mL (≈ 13.1 µM)
- MIC [12]: ≤ 0.125 µg/mL
- MIC [13]: ≤ 0.125 µg/mL

SMILES: CC[C@H]1OC(=O)[C@H](C)[C@@H](O[C@H]2C[C@@](C)(OC)[C@@H](OC(=O)CCOCCNc3ccc4c(c3)c(=O)c(C(=O)OCCN3CCCCC3)cn4C3CC3)[C@H](C)O2)[C@H](C)[C@@H](O[C@@H]2O[C@H](C)C[C@H](N(C)C)[C@H]2O)[C@](C)(O)C[C@@H](C)CN(C)[C@H](C)[C@@H](O)[C@]1(C)O
- MIC [1]: 1 µg/mL (≈ 0.832 µM)
- MIC [2]: ≤ 0.125 µg/mL
- MIC [3]: > 64 µg/mL
- MIC [4]: 8 µg/mL (≈ 6.65 µM)
- MIC [5]: 0.25 µg/mL (≈ 0.208 µM)
- MIC [6]: ≤ 0.125 µg/mL
- MIC [14]: 1 µg/mL (≈ 0.832 µM)
- MIC [7]: ≤ 0.125 µg/mL
- MIC [8]: ≤ 0.125 µg/mL
- MIC [9]: ≤ 0.125 µg/mL
- MIC [10]: ≤ 0.125 µg/mL
- MIC [11]: 4 µg/mL (≈ 3.33 µM)
- MIC [12]: ≤ 0.125 µg/mL
- MIC [13]: ≤ 0.125 µg/mL

SMILES: CC[C@H]1OC(=O)[C@H](C)[C@@H](O[C@H]2C[C@@](C)(OC)[C@@H](OC(=O)CCOCCOc3cc4c(=O)c(C(=O)OC(C)C)cn(C5CC5)c4cc3Cl)[C@H](C)O2)[C@H](C)[C@@H](O[C@@H]2O[C@H](C)C[C@H](N(C)C)[C@H]2O)[C@](C)(O)C[C@@H](C)CN(C)[C@H](C)[C@@H](O)[C@]1(C)O
- MIC [1]: 4 µg/mL (≈ 3.42 µM)
- MIC [2]: ≤ 0.125 µg/mL
- MIC [3]: > 64 µg/mL
- MIC [4]: 2 µg/mL (≈ 1.71 µM)
- MIC [5]: 1 µg/mL (≈ 0.856 µM)
- MIC [6]: ≤ 0.125 µg/mL
- MIC [14]: 0.5 µg/mL (≈ 0.428 µM)
- MIC [7]: 0.5 µg/mL (≈ 0.428 µM)
- MIC [8]: ≤ 0.125 µg/mL
- MIC [9]: ≤ 0.125 µg/mL
- MIC [10]: 0.5 µg/mL (≈ 0.428 µM)
- MIC [11]: 4 µg/mL (≈ 3.42 µM)
- MIC [12]: 0.25 µg/mL (≈ 0.214 µM)
- MIC [13]: ≤ 0.125 µg/mL

SMILES: CC[C@H]1OC(=O)[C@H](C)[C@@H](O[C@H]2C[C@@](C)(OC)[C@@H](OC(=O)CCOCCOc3cc4c(=O)c(C(=O)OCOC(=O)C(C)(C)C)cn(C5CC5)c4cc3Cl)[C@H](C)O2)[C@H](C)[C@@H](O[C@@H]2O[C@H](C)C[C@H](N(C)C)[C@H]2O)[C@](C)(O)C[C@@H](C)CN(C)[C@H](C)[C@@H](O)[C@]1(C)O
- MIC [1]: 2 µg/mL (≈ 1.61 µM)
- MIC [2]: ≤ 0.125 µg/mL
- MIC [3]: > 64 µg/mL
- MIC [4]: 4 µg/mL (≈ 3.22 µM)
- MIC [5]: 1 µg/mL (≈ 0.806 µM)
- MIC [6]: ≤ 0.125 µg/mL
- MIC [14]: 4 µg/mL (≈ 3.22 µM)
- MIC [7]: ≤ 0.125 µg/mL
- MIC [8]: ≤ 0.125 µg/mL
- MIC [9]: ≤ 0.125 µg/mL
- MIC [10]: 0.25 µg/mL (≈ 0.201 µM)
- MIC [11]: 4 µg/mL (≈ 3.22 µM)
- MIC [12]: ≤ 0.125 µg/mL
- MIC [13]: ≤ 0.125 µg/mL

SMILES: CC[C@H]1OC(=O)[C@H](C)[C@@H](O[C@H]2C[C@@](C)(OC)[C@@H](OC(=O)CCOCCOc3ccc4c(c3)c(=O)c(C(=O)OC(C)C)cn4C3CC3)[C@H](C)O2)[C@H](C)[C@@H](O[C@@H]2O[C@H](C)C[C@H](N(C)C)[C@H]2O)[C@](C)(O)C[C@@H](C)CN(C)[C@H](C)[C@@H](O)[C@]1(C)O
- MIC [1]: 16 µg/mL (≈ 14.1 µM)
- MIC [2]: ≤ 0.125 µg/mL
- MIC [3]: > 64 µg/mL
- MIC [4]: 4 µg/mL (≈ 3.53 µM)
- MIC [5]: 1 µg/mL (≈ 0.882 µM)
- MIC [6]: ≤ 0.125 µg/mL
- MIC [14]: 2 µg/mL (≈ 1.76 µM)
- MIC [7]: ≤ 0.125 µg/mL
- MIC [8]: ≤ 0.125 µg/mL
- MIC [9]: ≤ 0.125 µg/mL
- MIC [10]: ≤ 0.125 µg/mL
- MIC [11]: 32 µg/mL (≈ 28.2 µM)
- MIC [12]: ≤ 0.125 µg/mL
- MIC [13]: ≤ 0.125 µg/mL

SMILES: CC[C@H]1OC(=O)[C@H](C)[C@@H](O[C@H]2C[C@@](C)(OC)[C@@H](OC(=O)CCOCCOc3ccc4c(c3)c(=O)c(C(=O)OCC(C)=O)cn4C3CC3)[C@H](C)O2)[C@H](C)[C@@H](O[C@@H]2O[C@H](C)C[C@H](N(C)C)[C@H]2O)[C@](C)(O)C[C@@H](C)CN(C)[C@H](C)[C@@H](O)[C@]1(C)O
- MIC [1]: 1 µg/mL (≈ 0.871 µM)
- MIC [2]: ≤ 0.125 µg/mL
- MIC [3]: 64 µg/mL (≈ 55.7 µM)
- MIC [4]: 2 µg/mL (≈ 1.74 µM)
- MIC [5]: 0.5 µg/mL (≈ 0.435 µM)
- MIC [6]: ≤ 0.125 µg/mL
- MIC [14]: 1 µg/mL (≈ 0.871 µM)
- MIC [7]: ≤ 0.125 µg/mL
- MIC [8]: ≤ 0.125 µg/mL
- MIC [9]: ≤ 0.125 µg/mL
- MIC [10]: 0.25 µg/mL (≈ 0.218 µM)
- MIC [11]: 2 µg/mL (≈ 1.74 µM)
- MIC [12]: 0.5 µg/mL (≈ 0.435 µM)
- MIC [13]: 0.25 µg/mL (≈ 0.218 µM)
